Source: patent publication US8716242B2, “β-hairpin peptidomimetics” (priority 2009, dated 2014)
Where two headings read alike, the source gives them in different places. Numbered stars: 1 amine (or outer) side, 2 acyl side, 3 side chain; on linkers, the order of the positions; unused ones are H or OH. Bridge positions count the residues as written; N and C are the ends. Square brackets hold non-standard residues; d marks the D form. Side chains are listed from the residue outwards. Peptide text beside a SMILES is read from it. * marks the point of attachment. Cholyl = C[C@H](CCC(=O)*)[C@H]1CC[C@H]2[C@@H]3[C@H](O)C[C@@H]4C[C@H](O)CC[C@]4(C)[C@H]3C[C@H](O)[C@]12C; Benzoyl(4-dodecyloxy) = CCCCCCCCCCCCOc1ccc(C(=O)*)cc1; Benzoyl(4-octyloxy) = CCCCCCCCOc1ccc(C(=O)*)cc1; γGlu = O=C(O)[C@H](CCC(=O)[*:2])N[*:1]; Octyloxycarbonyl = CCCCCCCCOC(=O)*; Stearoyl = CCCCCCCCCCCCCCCCCC(=O)*; Lauroyl = CCCCCCCCCCCC(=O)*; Dab = NCC[C@H](N)C(=O)O

Tests used:
[1] = test system: intracranial glioblastoma and medulloblastoma xenografts; details: systemic administration; cited from earlier work
human CXCR4 = target: T1, human CXCR4 (Homo sapiens, UniProt P61073); experiment: Ca2+-assay: CXCR4-antagonizing activity (SDF-1 induced calcium mobilization); assay type: cell-based
T1 construct: expressed in transfected cells; host or cells: mouse pre-B cell line 300-19
T1 sequence (P61073 whole entry): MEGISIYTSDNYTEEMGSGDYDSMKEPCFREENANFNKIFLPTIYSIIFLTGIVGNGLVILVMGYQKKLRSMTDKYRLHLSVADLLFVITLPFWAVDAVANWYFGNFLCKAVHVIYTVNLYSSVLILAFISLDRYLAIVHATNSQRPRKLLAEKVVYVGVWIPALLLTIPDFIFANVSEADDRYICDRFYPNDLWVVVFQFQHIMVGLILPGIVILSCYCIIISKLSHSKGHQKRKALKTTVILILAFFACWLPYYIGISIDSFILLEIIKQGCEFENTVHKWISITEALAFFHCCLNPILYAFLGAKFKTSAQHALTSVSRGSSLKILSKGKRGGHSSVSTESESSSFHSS
Method in brief: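 Mouse pre-B 300-19 cells stably expressing human CXCR4, loaded with Calcium 4 dye in HBSS/20 mM HEPES pH 7.4/0.1% BSA for 1 h at RT. Peptides added before SDF-1; fluorescence (ex 485/em 525 nm) followed for 90 s. IC50 from four-parameter logistic fit of % maximal SDF-1 response.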

[2] = Cytotoxicity, MTT reduction assay, HELA cells; assay type: cell-based; details: human, HELA cells (Acc57), 12.5-50 μM
Method in brief: (§1)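 HELA (4000/well) and COS-7 (3400/well) cells were grown 24 h, then exposed 48 h at 37° C to peptides at 12.5, 25 and 50 μM in triplicate. MTT reduction read at 595 nm; growth % relative to time-zero, and GI50 interpolated by trend line.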

[3] = Cytotoxicity, MTT reduction assay, COS-7 cells; assay type: cell-based; details: African green monkey, COS-7 cells (CRL-1651), 12.5-50 μM
Method in brief: as §1

[4] = test system: human red blood cells (hRBC); experiment: Hemolysis of human red blood cells; assay type: cell-based; details: 20% hRBC, 1 h, 37° C.
Method in brief: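 Washed fresh human erythrocytes (20% v/v, ~0.9×10^9 cells/mL final) incubated with compound at 100 μM for 1 h at 37 °C with shaking. Supernatant OD540 read; % hemolysis expressed relative to 2.5% Triton X-100 lysis (100%), with PBS/0.001% acetic acid as 0%.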

[5] = Plasma stability in human plasma; assay type: in vitro ADME; details: human plasma, 37° C.; for remaining at 24 h, 10 μM: 1440 min, read-out: human pl. cpd left at 1440 min
Method in brief: (§2)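 Peptides (1 mM DMSO/H2O stock) were spiked into human or mouse plasma in triplicate and incubated at 37 °C, sampling from 0 to 1440 min. Samples were quenched in formic acid/acetonitrile and analysed by LC/MS MRM. Remaining percent of t=0 was calculated and T1/2 derived by trend fitting.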

[6] = Plasma stability in mouse plasma; assay type: in vitro ADME; details: mouse plasma, 37° C.; for remaining at 24 h, 10 μM: 1440 min, read-out: mouse pl. cpd left at 1440 min
Method in brief: as §2

[7] = mouse pre-B cell line 300-19 transfected with human CXCR4, SDF-1 induced Ca2+ mobilization, read-out: IC50% [nM] ± SD, CXCR4 receptor

| SMILES | growth of intracranial glioblastoma and medulloblastoma xenografts [1] | IC50 (human CXCR4; [7]) [nM] | GI50 at 48 h [2] [µM] | GI50 at 48 h [3] [µM] | Hemolysis at 100 μM [4] [%] | remaining at 24 h, 10 μM [5] [%] | human pl. T1/2 ([5]; up to 1440 min) [h] | remaining at 24 h, 10 μM [6] [%] | mouse pl. T1/2 ([6]; up to 1440 min) [h] | IC50 (human CXCR4) [nM] | half-life at 10 μM ([5]; up to 1440 min, read-out: human pl. T1/2) [h] | half-life at 10 μM ([6]; up to 1440 min, read-out: mouse pl. T1/2) [h] |
| --- | --- | --- | --- | --- | --- | --- | --- | --- | --- | --- | --- | --- |
| c1cc(CN2CCCNCCNCCCNCC2)ccc1CN1CCCNCCNCCCNCC1 [AMD3100] | inhibits growth |  |  |  |  |  |  |  |  |  |  |  |
| CCCCCCCCCCCCCCCCCC(=O)NCCCC[C@@H]1NC(=O)[C@H](Cc2ccc(O)cc2)NC(=O)[C@@H]2CSSC[C@H](NC(=O)[C@H](Cc3ccc(O)cc3)NC(=O)[C@H](Cc3c[nH]cn3)NC(=O)[C@H](Cc3ccc(O)cc3)NC(=O)[C@@H]3CCCN3C(=O)[C@H]3CCCN3C(=O)[C@H](CCCCN)NC1=O)C(=O)N[C@@H](CO)C(=O)N[C@@H](C)C(=O)N1CCC[C@@H]1C(=O)N[C@@H](CCN)C(=O)N[C@@H](CCCNC(=N)N)C(=O)N[C@@H](Cc1ccc(O)cc1)C(=O)N2 [Ex. 22] (cyclo(YHYCSA[dP][Dab]RYCYK(Stearoyl)K[dP]P); disulfide 4-11) |  | 7.3 ± 3 | > 35 | > 50 | 9.6 | 72 | 24 | 82 | 24 |  |  |  |
| CCCCCCCCOc1ccc(C(=O)NCCCC[C@@H]2NC(=O)[C@H](Cc3ccc(O)cc3)NC(=O)[C@@H]3CSSC[C@H](NC(=O)[C@H](C)NC(=O)[C@H](Cc4c[nH]cn4)NC(=O)[C@H](Cc4ccc(O)cc4)NC(=O)[C@@H]4CCCN4C(=O)[C@H]4CCCN4C(=O)[C@H](CCCCN)NC2=O)C(=O)N[C@@H](CCCNC(=N)N)C(=O)N[C@@H](C)C(=O)N2CCC[C@@H]2C(=O)N[C@@H](CCN)C(=O)N[C@@H](CCCNC(=N)N)C(=O)N[C@@H](Cc2ccc(O)cc2)C(=O)N3)cc1 [Ex. 23] (cyclo(YHACRA[dP][Dab]RYCYK(Benzoyl(4-octyloxy))K[dP]P); disulfide 4-11) |  |  | > 22 | > 50 | 7.8 | 100 | 24 | 74 | 24 | 8.3 ± 3.2 |  |  |
| CCCCCCCCCCCCOc1ccc(C(=O)NCCCC[C@@H]2NC(=O)[C@H](Cc3ccc(O)cc3)NC(=O)[C@@H]3CSSC[C@H](NC(=O)[C@H](Cc4ccc(O)cc4)NC(=O)[C@H](Cc4c[nH]cn4)NC(=O)[C@H](Cc4ccc(O)cc4)NC(=O)[C@@H]4CCCN4C(=O)[C@H]4CCCN4C(=O)[C@H](CCCCN)NC2=O)C(=O)N[C@@H](CO)C(=O)N[C@@H](C)C(=O)N2CCC[C@@H]2C(=O)N[C@@H](CCN)C(=O)N[C@@H](CCCNC(=N)N)C(=O)N[C@@H](Cc2ccc(O)cc2)C(=O)N3)cc1 [Ex. 24] (cyclo(YHYCSA[dP][Dab]RYCYK(Benzoyl(4-dodecyloxy))K[dP]P); disulfide 4-11) |  |  | > 29 | > 50 | 10.9 | 24 |  | 22 |  | 6.1 ± 4.5 | 2.12 | 9.27 |
| C[C@H](CCC(=O)NCC(=O)NCCCC[C@@H]1NC(=O)[C@H](CCC(N)=O)NC(=O)[C@H](Cc2ccc(O)cc2)NC(=O)[C@@H]2CSSC[C@H](NC(=O)[C@H]([C@@H](C)O)NC(=O)[C@H](Cc3c[nH]cn3)NC(=O)[C@H](Cc3ccc(O)cc3)NC(=O)[C@@H]3CCCN3C(=O)[C@H]3CCCN3C1=O)C(=O)N[C@@H](CCCNC(=N)N)C(=O)NCC(=O)N1CCC[C@@H]1C(=O)N[C@@H](CCN)C(=O)N[C@@H](CCCNC(=N)N)C(=O)N[C@@H](Cc1ccc(O)cc1)C(=O)N2)[C@H]1CC[C@H]2[C@@H]3[C@H](O)C[C@@H]4C[C@H](O)CC[C@]4(C)[C@H]3C[C@H](O)[C@]12C [Ex. 34] (cyclo(YHTCRG[dP][Dab]RYCYQK([Gly-Cholyl])[dP]P); disulfide 4-11) |  |  | > 45 | > 50 | 0.6 | 100 | 24 | 87 | 24 | 7.2 ± 0.3 |  |  |
| CCCCCCCCOC(=O)NC(=N)NCCC[C@@H]1NC(=O)[C@H](CCN)NC(=O)[C@H]2CCCN2C(=O)[C@H](C)NC(=O)[C@H](CO)NC(=O)[C@@H]2CSSC[C@H](NC(=O)[C@H](Cc3ccc(O)cc3)NC1=O)C(=O)N[C@@H](Cc1ccc(O)cc1)C(=O)N[C@@H](CCC(N)=O)C(=O)N[C@@H](CCCCN)C(=O)N1CCC[C@@H]1C(=O)N1CCC[C@H]1C(=O)N[C@@H](Cc1ccc(O)cc1)C(=O)N[C@@H](Cc1c[nH]cn1)C(=O)N[C@@H](Cc1ccc(O)cc1)C(=O)N2 [compound 6] (cyclo(YHYCSA[dP][Dab]R(Octyloxycarbonyl)YCYQK[dP]P); disulfide 4-11) |  | 28.5 ± 9 | > 10 | > 35 | 0.7 | 76 | 24 | 92 | 24 |  |  |  |
| CCCCCCCCCCCC(=O)N[C@@H](CCC(=O)NCCCC[C@@H]1NC(=O)[C@H](Cc2ccc(O)cc2)NC(=O)[C@@H]2CSSC[C@H](NC(=O)[C@H](C)NC(=O)[C@H](Cc3c[nH]cn3)NC(=O)[C@H](Cc3ccc(O)cc3)NC(=O)[C@@H]3CCCN3C(=O)[C@H]3CCCN3C(=O)[C@H](CCCCN)NC1=O)C(=O)N[C@@H](CCCNC(=N)N)C(=O)NCC(=O)N1CCC[C@@H]1C(=O)N[C@@H](CCN)C(=O)N[C@@H](CCCNC(=N)N)C(=O)N[C@@H](Cc1ccc(O)cc1)C(=O)N2)C(=O)O [compound 27] (cyclo(YHACRG[dP][Dab]RYCYK([γGlu-Lauroyl])K[dP]P); disulfide 4-11) |  | 2.6 ± 0.7 | > 48 | > 50 | 1.6 | 75 | 24 | 22 | 24 |  |  |  |
